Structures are written as SMILES. Read-outs that look alike come from different tables or passages of the source.

What all share (type): cell-based
One assay deals with T1, human M1 receptor (Homo sapiens, UniProt P11229).
T1 sequence (P11229 1-460): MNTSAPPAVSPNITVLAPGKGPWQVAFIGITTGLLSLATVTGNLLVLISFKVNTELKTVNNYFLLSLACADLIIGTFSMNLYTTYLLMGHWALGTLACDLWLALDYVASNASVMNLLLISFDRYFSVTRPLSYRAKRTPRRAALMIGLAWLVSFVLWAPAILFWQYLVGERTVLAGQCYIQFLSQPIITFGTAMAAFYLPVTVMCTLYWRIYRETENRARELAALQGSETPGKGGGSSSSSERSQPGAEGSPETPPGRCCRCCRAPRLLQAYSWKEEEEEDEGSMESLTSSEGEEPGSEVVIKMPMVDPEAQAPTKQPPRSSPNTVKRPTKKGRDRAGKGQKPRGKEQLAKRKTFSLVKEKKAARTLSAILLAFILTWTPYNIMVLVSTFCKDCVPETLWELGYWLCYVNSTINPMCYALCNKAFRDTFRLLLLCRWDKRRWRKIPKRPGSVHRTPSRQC
The assay can be described thus: In vitro functional assay of muscarinic acetylcholine receptor activity (aequorin calcium flux, antagonist mode vs EC80 acetylcholine), M1. The essentials: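 Antagonism at M1 was measured as a concentration-dependent reduction of the EC80 acetylcholine-evoked aequorin luminescence, from which IC50 was derived. Human M1 CHO-K1 aequorin cells were first loaded with 5 uM coelenterazine h for 4 h and exposed to compound for 30 min at room temperature.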

For another assay, the target named is M3 (Homo sapiens, UniProt P20309). The assay can be described thus: In vitro functional assay of muscarinic acetylcholine receptor activity, M3.
A further assay addresses T2, M2 (Homo sapiens, UniProt P08172).
T2 sequence (P08172 1-466): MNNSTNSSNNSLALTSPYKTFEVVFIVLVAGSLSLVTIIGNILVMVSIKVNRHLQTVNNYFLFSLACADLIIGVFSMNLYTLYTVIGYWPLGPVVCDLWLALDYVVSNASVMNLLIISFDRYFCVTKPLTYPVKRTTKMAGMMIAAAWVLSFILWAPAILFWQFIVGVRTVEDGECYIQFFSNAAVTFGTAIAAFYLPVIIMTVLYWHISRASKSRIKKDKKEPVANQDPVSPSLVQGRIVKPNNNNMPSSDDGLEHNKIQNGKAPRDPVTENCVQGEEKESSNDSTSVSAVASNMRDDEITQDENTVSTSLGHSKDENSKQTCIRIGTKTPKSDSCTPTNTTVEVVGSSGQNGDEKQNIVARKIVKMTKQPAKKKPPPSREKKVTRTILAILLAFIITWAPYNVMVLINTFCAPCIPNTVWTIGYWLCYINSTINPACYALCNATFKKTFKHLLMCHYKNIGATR
The assay can be described thus: In vitro functional assay of muscarinic acetylcholine receptor activity, M2.

The mark [1] stands for this setting: antagonist IC50 at M3, read-out: M3 IC50.
The mark [2] stands for this setting: antagonist IC50 at M2, read-out: M2 IC50.
Setting [3] is: CHO-K1 cells stably expressing human M1 receptor with Aequorin, decrease in EC80 acetylcholine response, read-out: M1 IC50.

Chain of M3 (P20309 whole entry): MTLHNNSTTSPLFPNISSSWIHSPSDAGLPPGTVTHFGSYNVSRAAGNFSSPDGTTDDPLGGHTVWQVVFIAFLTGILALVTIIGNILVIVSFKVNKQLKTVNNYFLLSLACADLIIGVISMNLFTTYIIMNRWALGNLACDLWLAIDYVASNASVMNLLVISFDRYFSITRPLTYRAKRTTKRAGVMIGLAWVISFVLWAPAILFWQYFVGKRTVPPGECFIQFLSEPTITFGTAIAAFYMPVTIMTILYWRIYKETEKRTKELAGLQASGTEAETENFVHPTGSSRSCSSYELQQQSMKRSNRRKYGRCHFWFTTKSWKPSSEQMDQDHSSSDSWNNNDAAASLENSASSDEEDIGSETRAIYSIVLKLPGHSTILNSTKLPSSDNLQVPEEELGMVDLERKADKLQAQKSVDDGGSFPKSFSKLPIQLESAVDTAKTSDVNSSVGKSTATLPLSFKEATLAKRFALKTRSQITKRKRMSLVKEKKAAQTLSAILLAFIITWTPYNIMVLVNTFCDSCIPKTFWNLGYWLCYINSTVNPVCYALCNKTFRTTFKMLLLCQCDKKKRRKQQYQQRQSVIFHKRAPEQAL

`N#Cc1ccc(N2C3CCC2CN(C(=O)COCCc2cccc4nccnc24)C3)nc1` [Example 43, 6-(3-{2-[2-(quinoxalin-5-yl)ethoxy]acetyl}-3,8-diazabicyclo[3.2.1]octan-8-yl)pyridine-3-carbonitrile]: the values for the IC50 at human M1 receptor, at M3 and against M2 were 100 to 1000 nM, above 10000 nM and 1000 to 10000 nM, respectively.
Consider `N#Cc1ccc(N2C3CCC2CN(C(=O)CCCCc2cccc4ncsc24)C3)nc1` [Example 44, 6-{3-[5-(1,3-benzothiazol-7-yl)pentanoyl]-3,8-diazabicyclo[3.2.1]octan-8-yl}pyridine-3-carbonitrile], for which the results for the IC50 on human M1 receptor, on M3 (setting [1]) and against M2 were below 100 nM, 1000 to 10000 nM and 100 to 1000 nM, respectively.
For `N#Cc1ccc(N2[C@@H]3CC[C@H]2CN(C(=O)[C@H]2C[C@H](Nc4cccc5ncccc45)C2)C3)nc1` [Example 45, 6-(3-{3-[(quinolin-5-yl)amino]cyclobutanecarbonyl}-3,8-diazabicyclo[3.2.1]octan-8-yl)pyridine-3-carbonitrile], the 50% inhibitory concentration (IC50) on human M1 receptor was 100 to 1000 nM; at M3 (setting [1]), above 10000 nM; on M2 (setting [2]), 1000 to 10000 nM.
For the compound `N#Cc1ccc(N2C3CCC2CN(C(=O)N2CC(=Cc4cccc5ncccc45)C2)C3)nc1` [Example 46, 6-(3-{3-[(quinolin-5-yl)methylidene]azetidine-1-carbonyl}-3,8-diazabicyclo-[3.2.1]octan-8-yl)pyridine-3-carbonitrile], the results for the IC50 at human M1 receptor, on M3 (setting [1]) and on M2 (setting [2]) were 100 to 1000 nM, 1000 to 10000 nM and 1000 to 10000 nM, respectively.
Turning to `O=C(COCc1cccc2cnccc12)N1C[C@H]2CC[C@@H](C1)N2c1ccc(F)cn1` [Example 47, 1-((1R,5S)-8-(5-fluoropyridin-2-yl)-3,8-diazabicyclo[3.2.1]octan-3-yl)-2-(isoquinolin-5-ylmethoxy)ethan-1-one], the IC50 at human M1 receptor (setting [3]) was 1000 to 10000 nM; on M3 (setting [1]), above 10000 nM; at M2 (setting [2]), 1000 to 10000 nM.
`O=C(CCOCc1cccc2ncccc12)N1C[C@H]2CC[C@@H](C1)N2c1ccc(F)cn1` [Example 48, 1-((1R,5S)-8-(5-fluoropyridin-2-yl)-3,8-diazabicyclo[3.2.1]octan-3-yl)-3-(quinolin-5-ylmethoxy)propan-1-one]: the figures for the IC50 at human M1 receptor, at M3 (setting [1]) and on M2 (setting [2]) were 100 to 1000 nM, above 10000 nM and 1000 to 10000 nM, respectively.
Taken in the same sequence, the figures for `O=C(CCOCc1cccc2cnccc12)N1C[C@H]2CC[C@@H](C1)N2c1ccc(F)cn1` [Example 49, 1-((1R,5S)-8-(5-fluoropyridin-2-yl)-3,8-diazabicyclo[3.2.1]octan-3-yl)-3-(isoquinolin-5-ylmethoxy)propan-1-one] were 100 to 1000 nM, above 10000 nM and 1000 to 10000 nM.
Turning to `O=C(N1CC(Oc2cccc3ncccc23)C1)N1C[C@H]2CC[C@@H](C1)N2c1ccc(F)cn1` [Example 50, ((1R,5S)-8-(5-fluoropyridin-2-yl)-3,8-diazabicyclo[3.2.1]octan-3-yl)(3-(quinolin-5-yloxy)azetidin-1-yl)methanone], the IC50 on human M1 receptor (setting [3]) was 1000 to 10000 nM; at M3 (setting [1]), above 10000 nM; at M2 (setting [2]), 1000 to 10000 nM.
On to `Cc1cc(F)cnc1N1[C@@H]2CC[C@H]1CN(C(=O)CCCc1cccc3ncccc13)C2` [Example 52, 1-((1R,5S)-8-(5-fluoro-3-methylpyridin-2-yl)-3,8-diazabicyclo[3.2.1]octan-3-yl)-4-(quinolin-5-yl)butan-1-one], for which the half-maximal inhibitory concentration (IC50) on human M1 receptor lay within 100 to 1000 nM; on M3 (setting [1]), 1000 to 10000 nM; against M2 it was 100 to 1000 nM.
Take `Cc1cc(F)cnc1N1CCN(C(=O)CCCc2cccc3ncccc23)CC1` [Example 55, 1-(4-(5-fluoro-3-methylpyridin-2-yl)piperazin-1-yl)-4-(quinolin-5-yl)butan-1-one]: the results for the IC50 at human M1 receptor (setting [3]), at M3 (setting [1]) and at M2 (setting [2]) were below 100 nM, 1000 to 10000 nM and 100 to 1000 nM, respectively.
Taken in the same sequence, the figures for `CC1CN(c2ccncc2)CCN1C(=O)CCCc1cccc2ncccc12` (stereo not drawn) [Example 56, 1-(2-methyl-4-(pyridin-4-yl)piperazin-1-yl)-4-(quinolin-5-yl)butan-1-one] were 100 to 1000 nM, 1000 to 10000 nM and 100 to 1000 nM.
Taken in the same sequence, the figures for `O=C(CCCc1cccc2ncccc12)N1CC2CC1CN2c1ccncc1` (stereo not drawn) [Example 57, 1-(5-(pyridin-4-yl)-2,5-diazabicyclo[2.2.1]heptan-2-yl)-4-(quinolin-5-yl)butan-1-one] were 100 to 1000 nM, 1000 to 10000 nM and 1000 to 10000 nM.
The like results for `CC1CN(C(=O)CCCc2cccc3ncccc23)CCN1c1ccncc1` (stereo not drawn) [Example 60, 1-(3-methyl-4-(pyridin-4-yl)piperazin-1-yl)-4-(quinolin-5-yl)butan-1-one] were, in that order, below 100 nM, 1000 to 10000 nM and 100 to 1000 nM.
For the compound `O=C([C@H]1C[C@H](Oc2cccc3ncsc23)C1)N1CC2CCC(C1)N2c1ccc(F)cn1` [Example 63, ((1r,3R)-3-(benzo[d]thiazol-7-yloxy)cyclobutyl)((1R,5S)-8-(5-fluoropyridin-2-yl)-3,8-diazabicyclo[3.2.1]octan-3-yl)methanone], the figures for the IC50 on human M1 receptor (setting [3]), at M3 (setting [1]) and against M2 were 1000 to 10000 nM, above 10000 nM and 100 to 1000 nM, respectively.
On to `O=C([C@H]1C[C@H](Oc2cccc3ncsc23)C1)N1CC2CCC(C1)N2c1ncc(Cl)cn1` [Example 64, ((1r,3R)-3-(benzo[d]thiazol-7-yloxy)cyclobutyl)((1R,5S)-8-(5-chloropyrimidin-2-yl)-3,8-diazabicyclo[3.2.1]octan-3-yl)methanone], for which the IC50 at human M1 receptor (setting [3]) was above 10000 nM; at M3 (setting [1]), 1000 to 10000 nM; at M2 (setting [2]), 1000 to 10000 nM.
`Cc1cc(N2C3CCC2CN(C(=O)[C@H]2C[C@H](Oc4cccc5ncsc45)C2)C3)ccn1` [Example 65, ((1r,3R)-3-(benzo[d]thiazol-7-yloxy)cyclobutyl)((1R,5S)-8-(2-methylpyridin-4-yl)-3,8-diazabicyclo[3.2.1]octan-3-yl)methanone]: the IC50 on human M1 receptor (setting [3]) was 1000 to 10000 nM; on M3 (setting [1]), above 10000 nM; on M2 (setting [2]), 1000 to 10000 nM.
Regarding `O=C(CCCc1cccc2ncccc12)N1CCN(c2ccncc2F)CC1` [Example 67, 1-(4-(3-fluoropyridin-4-yl)piperazin-1-yl)-4-(quinolin-5-yl)butan-1-one], the IC50 was 100 to 1000 nM at human M1 receptor (setting [3]), 1000 to 10000 nM on M3 (setting [1]) and above 10000 nM on M2 (setting [2]).
The like results for `N#Cc1cnccc1N1CCN(C(=O)CCCc2cccc3ncccc23)CC1` [Example 68, 4-(4-(4-(quinolin-5-yl)butanoyl)piperazin-1-yl)nicotinonitrile] were, in that order, 1000 to 10000 nM, 1000 to 10000 nM and above 10000 nM.
`COc1cc(N2CCN(C(=O)CCCc3cccc4ncccc34)CC2)ccn1` [Example 69, 1-(4-(2-methoxypyridin-4-yl)piperazin-1-yl)-4-(quinolin-5-yl)butan-1-one]: the IC50 on human M1 receptor (setting [3]) is 100 to 1000 nM; on M3 (setting [1]), 1000 to 10000 nM; on M2 (setting [2]), above 10000 nM.
The like results for `N#Cc1cc(N2CCN(C(=O)CCCc3cccc4ncccc34)CC2)ccn1` [Example 70, 4-(4-(4-(quinolin-5-yl)butanoyl)piperazin-1-yl)picolinonitrile] were, in that order, below 100 nM, 1000 to 10000 nM and 100 to 1000 nM.
With `COc1cnc2cccc(CNCC(=O)N3C[C@H]4CC[C@@H](C3)N4c3ccncc3F)c2c1` [Example 71, 1-((1R,5S)-8-(3-fluoropyridin-4-yl)-3,8-diazabicyclo[3.2.1]octan-3-yl)-2-(((3-methoxyquinolin-5-yl)methyl)amino)ethan-1-one], the IC50 was 100 to 1000 nM at human M1 receptor, 1000 to 10000 nM on M3 (setting [1]) and 100 to 1000 nM against M2.
Consider `Cc1nc2cccc(CNCC(=O)N3C[C@H]4CC[C@@H](C3)N4c3ccncc3F)c2o1` [Example 72, 1-((1R,5S)-8-(3-fluoropyridin-4-yl)-3,8-diazabicyclo[3.2.1]octan-3-yl)-2-(((2-methylbenzo[d]oxazol-7-yl)methyl)amino)ethan-1-one], for which the figures for the IC50 at human M1 receptor, on M3 (setting [1]) and at M2 (setting [2]) were 100 to 1000 nM, above 10000 nM and 1000 to 10000 nM, respectively.
`Cc1nc2cccc(CCCC(=O)N3CCN(c4ccncc4F)CC3)c2o1` [Example 73, 1-(4-(3-fluoropyridin-4-yl)piperazin-1-yl)-4-(2-methylbenzo[d]oxazol-7-yl)butan-1-one]: the figures for the IC50 on human M1 receptor (setting [3]), at M3 (setting [1]) and on M2 (setting [2]) were 100 to 1000 nM, above 10000 nM and 1000 to 10000 nM, respectively.

Values taken from patent publication US11512090B2, “Muscarinic acetylcholine M1 receptor antagonists” (PIPELINE THERAPEUTICS, INC., priority 2018, dated 2022).
